Test results: EP4563620A1, “THREE-ARM POLYETHYLENE GLYCOL DERIVATIVE CONTAINING AMINO ACID RESIDUES” (Xiamen Sinopeg Biotech Co., Ltd., priority 2022, dated 2024)

What was measured:
[1] = tested on: human colon adenocarcinoma cell HT29; assay: Cytotoxicity assay, MTT staining; assay type: cell-based; details: HT-29, HT29, 10 nM, 48 h
Protocol: (§1) Cytotoxicity assay of PEGylated irinotecan E10-1 (wherein the polyethylene glycol component is derived from E4-1) was performed using MTT staining. A blank control group containing no drugs but only culture medium, a positive control group containing irinotecan, and an experimental group containing PEGylated irinotecan (E10-1) were respectively set up. The drug concentration of the positive control group and experimental group was 10 nM, with 6 replicate wells each, and the assay was repeated three times. Six types of cancer cells were selected as in vitro cancer cell models: human colon cancer cell COLO205, human colon adenocarcinoma cell HT29, human lung adenocarcinoma cell A549, pancreatic cancer cell MiaPaCa-2, human ovarian cancer cell A2780, and human ovarian adenocarcinoma cell OVCAR-3.
(§2) Cells were inoculated onto a 96-well plate at a density of 1×10^4 cells/well, with 100 µL of cell suspension added to each well. After the inoculation, the cells were incubated in a cell culture incubator at 37°C, 4% CO2 for 24 h. The old culture medium was aspirated, and then 100 µL of culture medium containing 10 nM E10-1 was added to each experimental group, 100 µL of culture medium containing 10 nM irinotecan was added to each positive control group, and 100 µL of fresh culture medium was added to the blank control group. After further incubation for 48 h, 20 µL of 5 mg/mL MTT in PBS buffer was added to each well. After incubating the cancer cells with MTT for 4 h, the mixture of culture medium and MTT buffer was aspirated, and then DMSO (150 µL/well) was added to dissolve the blue-purple crystalline product of formazan in viable cells. The 96-well plate was gently shaken until the crystalline product was fully dissolved, and then a microplate reader was used to measure the absorbance at 490 nm. [formula]

[2] = tested on: human colon cancer cell COLO205; assay: Cytotoxicity assay, MTT staining; assay type: cell-based; details: COLO 205, COLO205, 10 nM, 48 h
Protocol: as §1, §2

[3] = tested on: human lung adenocarcinoma cell A549; assay: Cytotoxicity assay, MTT staining; assay type: cell-based; details: A549, 10 nM, 48 h
Protocol: as §1, §2

[4] = tested on: human ovarian adenocarcinoma cell OVCAR-3; assay: Cytotoxicity assay, MTT staining; assay type: cell-based; details: OVCAR-3, 10 nM, 48 h
Protocol: as §1, §2

[5] = tested on: human ovarian cancer cell A2780; assay: Cytotoxicity assay, MTT staining; assay type: cell-based; details: A2780, 10 nM, 48 h
Protocol: as §1, §2

[6] = tested on: pancreatic cancer cell MiaPaCa-2; assay: Cytotoxicity assay, MTT staining; assay type: cell-based; details: Homo sapiens, MIA PaCa-2, MiaPaCa-2, 10 nM, 48 h
Protocol: as §1, §2

[7] = tested on: H22 mouse liver cancer cells; assay: Anti-tumor efficacy in vivo (transplanted solid tumor, tumor weight); details: H22 subcutaneous tumor in mice, tail vein injection on days 2 and 7 post-inoculation, tumors weighed after 2 weeks of administration
Protocol: The transplantation of animal tumors was adopted as the experimental method, with 6 mice per group, and H22 mouse liver cancer cells were inoculated subcutaneously into the right axilla of the mice to form solid tumors. Single-dose administrations via tail vein injection were performed on days 2 and 7 post-inoculation, respectively. After 2 weeks of administration, the mice were sacrificed via cervical dislocation, and the tumors were excised and weighed. Tumor Inhibition Rate = [G-H/G]*100% (G represents the average tumor weight of the blank control group, H represents the average tumor weight of the treatment group). Table 4. Results of Anti-tumor Effect

Question: With `CCc1c2c(nc3ccc(OC(=O)N4CCC(N5CCCCC5)CC4)cc13)-c1cc3c(c(=O)n1C2)COC(=O)[C@]3(O)CC` [irinotecan] as the compound, how does the viability at 0.01 µM [1] read?
Answer: 74%

Question: What about the viability at 0.01 µM [2] of the same compound?
Answer: 76%

Question: What about the viability at 0.01 µM [3] of the same compound?
Answer: 70%

Question: What about the viability at 0.01 µM [4] of the same compound?
Answer: 75%

Question: What about the viability at 0.01 µM [5] of the same compound?
Answer: 73%

Question: And the viability at 0.01 µM [6]?
Answer: 76%

Question: What about the “Tumor Inhibition Rate” value [7] of the same compound?
Answer: 30.3%
